Values belong to the compound of their own block, whether it stands above or below them.
Legend:
matrix metalloprotease-1 = assay: Matrix metalloprotease-1 production of NHDF after IL-1β, ELISA (Experiments 5 and 9); assay type: cell-based, human; details: 200 μM, single use; reduction against control
Experimental: Normal human dermal fibroblasts (NHDF), which had been suspended in a Dulbecco's Modified Eagle Medium supplemented with 10% fetal calf serum to give a concentration of 2.5×10^5 cells/mL, were placed in 96-well microplates by 0.1 mL/well and cultured until reaching a confluent state over the bottom of each well. Thereafter, the medium in each well was replaced with a fresh serum-free culture medium and culture for another 24 hours, added with any one of the test substances in Table 6 at each concentration shown in the table, and cultured for additional 24 hours. Then, the resulting cell cultures were added with human IL-1β to give a final concentration of 1 ng/ml, followed by culturing the cells for another 24 hours. After completion of the culture, matrix metalloprotease-1 in the supernatant in each well was detected with an enzyme-linked immuno sorbent assay (ELISA), commercialized by R & D Systems, Inc., MN, USA, developed coloration with tetramethylbenzidine, and measured for absorption at a wavelength of 450 nm. A control system was provided similarly as above except for not adding any test substance, and determined for the activity of matrix metalloprotease-1 similarly as in the above to be regarded as 100%. The production level of matrix metalloprotease-1 for each test substance was comparatively evaluated based on the following equation. Equation: Production level of matrix metalloprotease-1 (relative value (%))=[(Absorbance of a sample with any one of test substances)/(Absorbance of control)]×100
The experiment was repeated three times, and the data were compared to that of control with the Dunnett's multiple comparisons test. The symbol “*” means a level of significance of p<0.01.
Except for adding the test substances listed in Table 12 at respective concentrations shown in the table, experiments were respectively conducted in accordance with the methods in Experiment 5 disclosed in the specification to examine the effect of the combination use with ascorbic acid 2-glucoside used as a skin whitener in cosmetics on the action of anti-wrinkles by analogues of adenosine N1-oxide 5′-phosphate. A control system was provided and similarly treated as above except for not adding any test substance. The reduction rate of the production level of matrix metalloprotease-1 against that of control based on the following equation. Equation: Reduction rate of the production level of matrix metalloprotease−1(%)=100−[(Absorbance of a sample with any one of test substances)/(Absorbance of control)]×100

filaggrin protein = assay: Expression of filaggrin protein, Western blot filaggrin/actin (Experiment 3); assay type: cell-based, human; details: 0.5 mM (positive control); control = 100%
Experimental: Then, the expression of filaggrin was induced in such a manner of further culturing the cells for another four days, while replacing the culture medium with an EpiLife medium supplemented with 2 μM, 5 μM, or 10 μM of sodium adenosine N1-oxide 5′-phosphate every three days. […] After four days culture, the resultant cells were washed with Dulbecco's phosphate buffered saline, added with 0.1 mL of an SDS sample buffer (pH 6.8) containing 62.5 mM Tris-HCl, 2% SDS, 10% glycerol, and 50 mM DTT along with a protease inhibitor, and collected with a cell scraper. The collected cells were boiled for 10 min, disrupted ultrasonically, and quantified with “Pierce BCA Protein Assay Kit”, commercialized by ThermoFisher Scientific K. K., Yokohama, Japan. A prescribed amount of the resulting disrupted cells was sampled and subjected to SDS-polyacrylamide gel electrophoresis in an amount of 100 μg/lane, and the resulting gel was transferred to a PVDF membrane. The resulting transferred PVDF membrane was blocked with “Block Ace”, commercialized by DS Pharma Biomedical Co., Ltd., Osaka, Japan, reacted with a 200-fold dilution of “AKH1”, a mouse anti-filaggrin antibody, commercialized by, Santa Cruz Biotechnology Inc., CA, USA, or a 20,000-fold dilution of “MAB1501”, a mouse actin antibody, commercialized by Chemicon International Inc., MA, USA, as a first antibody, and then reacted with a 2,000-fold dilution of “P0447”, an HRP-labeled anti-mouse immunoglobulin, commercialized by Dako Japan, Tokyo, Japan, as a secondary antibody. After the reaction, by using ECL Plus Western Blotting Detection System, commercialized by GE Healthcare Japan, Tokyo, Japan, bands were detected on “Hyperfilm ECL”, a chemiluminescent film commercialized by GE Healthcare Japan, Tokyo, Japan. The detected bands were analyzed and quantified with “Image J”, an image analyzing software. A control system with no addition of any of the test substances was provided and the increasing intensity ratio of a band of filaggrin/actin was regarded as 100%, with which data for the increased percentages of the intensity ratios of bands of filaggrin/actin of the test substances were comparatively evaluated.

[1] = tested on: normal human epidermal keratinocytes; assay: Production level of cornified envelope, absorbance 310 nm (Experiments 1-2 and 7); assay type: cell-based; details: single use, increase over control
Experimental: Normal human epidermal keratinocytes were cultured similarly as in Experiment 1-1, except for adding the test substances listed in Table 2 at prescribed concentrations to the cells. The resulting cultured cells were washed once with phosphate buffered saline (PBS), followed by scrapping off the cells adhered to each culture plate by adding 0.5 mL of PBS to each well of the plates. The cell suspensions thus obtained were added with 10% sodium lauryl sulfate solution in a volume of ¼ of each of the suspension volumes, followed by stirring and freezing the resulting mixtures at −80° C. After thawing, the resulting mixtures were centrifuged at 12,000×g for 15 min, followed by collecting the cell precipitates which were then washed once with phosphate buffered saline containing 2% sodium lauryl sulfate. The resulting mixtures were centrifuged at 12,000×g for 15 min, followed by collecting the cells and suspending the collected cells with phosphate buffered saline containing 2% sodium lauryl sulfate and 20 mM dithiothreitol. The resulting cell suspensions were boiled in a boiling water bath for one hour and measured for absorbance at a wavelength of 310 nm to determine the production level of cornified envelope for each test system added with any of the test substances. A control system was provided similarly as above except for not adding any one of the test substances to the system, and determined for absorbance at a wavelength of 310 nm similarly as in the above to be regarded as 100%. The production level of cornified envelope for each test substance was relatively evaluated based on the following equation. Equation: Production level of cornified envelope (Relative value (%))=[(Absorbance of a sample with any one of test substances)/(Absorbance of Control)]×100
(§1) The experiment was repeated three times, and the data was subjected to the Dunnett's multiple comparisons with Control. The symbol “*” means a level of significance of p<0.01.
(§2) Except for adding the test substances listed in Tables 8 and 9 at respective concentrations shown in the tables, experiments were respectively conducted in accordance with the methods in Experiments 1-2 and 1-3 disclosed in the specification to examine the effect of the combination use of epigallocatechin gallate, which is used as an antioxidant for cosmetics, and sodium adenosine N1-oxide 5′-phosphate on the action of accelerating the cornified-envelope production and the action of enhancing the transglutaminase activity of sodium adenosine N1-oxide 5′-phosphate. A control system was provided and similarly treated as above except for not adding any test substance and was determined for both the increase rates of cornified-envelope production level and the transglutaminase activity, based on the following equations. Equation: Increase rate of cornified envelope production level (%)={[(Absorbance of a sample with any one of test substances)/(Absorbance of control)]×100}−100 Equation: Increase rate of transglutaminase (%)={[(Absorbance of a sample with any one of test substances)/(Absorbance of control)]×100}−100

transglutaminase = assay: Transglutaminase activity, fluorescein cadaverine uptake (Experiments 1-3 and 7); assay type: cell-based, human; details: single use, increase over control
Experimental: Normal human epidermal keratinocytes were cultured similarly as in Experiment 1-1, except for adding the test substances as listed in Table 3 to respective culture systems. The cultured normal human epidermal keratinocytes were added with 100 μM of fluorescein cadaverine and allowed to stand for four hours. Thereafter, the resulting cells were washed once with phosphate buffered saline and further treated with cold methanol for 10 min for cell fixation. The fixed cells were washed thrice with cold methanol, followed by the addition of phosphate buffered saline. Fluorescein cadaverine taken in the cells via transglutaminase was analyzed with Cell Imaging Station, commercialized by Molecular Probes Life Technology, France, and the analyzed fluorescent intensities were regarded as transglutaminase activities. There was provided a control system similarly as in the above, except for not adding any of the test substances. The transglutaminase activity of each test substance was evaluated as a relative value determined with the following equation using the fluorescent intensity of the control system being regarded as 100%. Equation: Transglutaminase activity (relative value (%))=[(Fluorescent intensity of a sample with any one of test substances)/(Fluorescent intensity of control)]×100
as §1, §2

[2] = tested on: human epidermoid carcinoma cell line A-431; assay: Tight-junction function, lucifer yellow transmittance (Experiments 2 and 8); assay type: cell-based; details: 3 mM, single use; reduction against control
Description: A human epidermoid carcinoma cell line A-431 was suspended in a media, supplemented with any of the test substances disclosed in Table 4 and having respective concentrations as indicated in the table, to give a cell concentration of 1×10^5 cells/mL, and each cell suspension was placed in an insert cup for a 12-well culture plate by two milliliters per well, followed by culturing the cells until reaching a confluent state through over the bottom surface of each well. The inner and the outer cup volumes were adjusted to give two milliliters while checking both the liquid levels of the cups were constant, and lucifer yellow as a model for permeating substance, commercialized by Life Technologies Corporation, CA, USA, was added to each inner cup to give a final concentration of 100 μM. Thereafter, the fluorescent intensities of lucifer yellow in the culture media in both the inner and the outer cups were measured, followed by calculating the percentage of the fluorescent intensity of the outer cup against that of the sum of the outer and the inner cups for use as a transmittance of lucifer yellow with the following equation. Equation: Transmittance of lucifer yellow (%)={(Absorbance of a liquid outside of an insert cup)/[(Absorbance of a liquid inside of the insert cup)+(Absorbance of the liquid outside of the insert cup)]}×100
There was provided a control system prepared similarly as above except for not adding any of the test substances, and the transmittance of lucifer yellow was regarded as 100% for evaluating the reduction of transmittance due to the reinforcement of the function of tight junction, based on the following equation. Equation: Relative transmittance (Relative percentage (%)) of lucifer yellow=[(Transmittance of a sample with any one of test substances)/(Transmittance of control)]×100
The experiment was repeated three times, and the data was subjected to the Dunnett's multiple comparisons with control. The symbol “*” means a level of significance of p<0.01.
Except for adding the test substances listed in Table 11 at respective concentrations shown in the table, experiments were respectively conducted in accordance with the methods in Experiment 2 disclosed in the specification to examine the effect of the combination use with ethylenediaminetetraacetate used as a preservative for cosmetics on the action of reinforcing the function of tight junction by sodium adenosine N1-oxide 5′-phosphate. A control system was provided and similarly treated as above except for not adding any test substance. The reduction rate of relative transmittance of lucifer yellow against that of control based on the following equation. Equation: Reduction rate of relative transmittance of lucifer yellow (%)=100−[(Transmittance of a sample with any one of test substances)/(Transmittance of control)]×100

Compound: O=C1O[C@H]([C@@H](O)CO)C(O)=C1O[C@H]1O[C@H](CO)[C@@H](O)[C@H](O)[C@H]1O [Ascorbic acid 2-glucoside, reference compound]
Reduction rate of the production level of matrix metalloprotease-1 activity (%) (matrix metalloprotease-1): 2.1%

Compound: [Ca+2].[Cl-].[Cl-] [CaCl2, calcium chloride, reference compound]
Relative expression level of filaggrin protein (%) (filaggrin protein): 289%

Increase rate of transglutaminase activity (%) (transglutaminase; 1.6 μM): 5.6% | Increase rate of transglutaminase activity (%) (transglutaminase; 3.3 μM): 19.0% | Increase rate of transglutaminase activity (%) (transglutaminase; 6.5 μM): 6.5%
Compound: O=C(O[C@@H]1Cc2c(O)cc(O)cc2O[C@@H]1c1cc(O)c(O)c(O)c1)c1cc(O)c(O)c(O)c1 [Epigallocatechin gallate, reference compound]
Increase rate of cornified envelope formation level (%) ([1]; 1.6 μM): 28.0% | Increase rate of cornified envelope formation level (%) ([1]; 3.3 μM): 37.3%

Compound: O=C(O)CN(CCN(CC(=O)O)CC(=O)O)CC(=O)O [Ethylenediaminetetraacetate, reference compound]
Reduction rate of relative transmittance of lucifer yellow (%) [2]: −24.7%

Source: patent publication US10071042B2, “External dermatological agent for anti-ageing” (Hayashibara Co., Ltd., priority 2014, dated 2018)
